Data from US8686048B2, “Immunomodulator and anti-inflammatory compounds” (Rhizen Pharmaceuticals SA, priority 2010, dated 2014).

Columns and labels:
IL-17 = assay: Inhibition of IL-17 release from mouse splenocytes (PMA + ionomycin, ELISA); type: cell-based, Balb/c mice; settings: Splenocyte, 3 h
How it was run: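 Balb/c splenocytes (1×10^6 cells/ml, RPMI) were pretreated with inhibitor for 15 min, then stimulated with 10 ng/ml PMA plus 1 μM ionomycin. Supernatant IL-17 was measured by ELISA after 3 h. IC50 was derived from percent inhibition relative to control.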

h-DHODH = molecular target: T1, h-DHODH (Homo sapiens, UniProt Q02127); assay: Dihydro-orotate dehydrogenase inhibition assay (U937 membrane preparations, DCIP reduction); type: biochemical; settings: U937 membrane preparation; for inhibition at 0.3 µM: compound tested at 0.3 uM (footnote *)
T1 construct: endogenous in cells; host or cells: U937 cells (membrane fraction, solubilised with 1% octyl glucoside)
T1 sequence (Q02127 whole entry): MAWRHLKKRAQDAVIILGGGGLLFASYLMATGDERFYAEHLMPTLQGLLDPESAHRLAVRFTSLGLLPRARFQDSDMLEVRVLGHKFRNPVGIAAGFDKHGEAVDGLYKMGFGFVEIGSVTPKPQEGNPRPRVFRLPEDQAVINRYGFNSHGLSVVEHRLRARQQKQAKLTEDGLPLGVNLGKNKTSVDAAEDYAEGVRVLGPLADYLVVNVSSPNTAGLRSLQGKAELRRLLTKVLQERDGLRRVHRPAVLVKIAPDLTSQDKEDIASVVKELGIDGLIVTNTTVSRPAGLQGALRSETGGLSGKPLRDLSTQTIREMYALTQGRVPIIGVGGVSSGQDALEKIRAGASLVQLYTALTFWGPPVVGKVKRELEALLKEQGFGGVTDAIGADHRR
How it was run: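 Detergent (1% octyl glucoside) extract of U937 cell membranes; dihydro-orotate-driven DCIP reduction followed as absorbance change at 600 nm after 4 h at 37° C. IC50 derived from percent inhibition of […].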

[1] = Single dose oral hepatotoxicity assay; type: in vivo, BALB/cJ mice; settings: serum, 24 hr after 100 mg/kg po single dose, mice
Description: 5. Single Dose Oral Hepatotoxicity Assay:
BALB/cJ (n=4 or 5/sex) mice aged 8 to 10 weeks, with weights ranging from 18 to 25 g were used. They were housed under conditions of controlled temperature and humidity and a 12-h light/dark cycle. They were given continuous access to bottled spring water and fed a standard chow at ad libitum. The mice were allowed to acclimate for 1 week before use. On the day of experiment mice were fasted overnight for 12 h and administered with test item formulation (100 mg/kg·b·wt/po) or vehicle (10 ml/kg·b·wt/po) by oral route and food was given 4 hr after test item administration. After 24 hr post administration blood samples were collected from orbital sinus of all the animals and serum was separated to assess the hepatotoxicity. Biochemical evaluation of liver function was determined by measuring serum enzyme activities of alanine aminotransferase (ALT) and aspartate aminotransferase (AST) using commercially available kits from Sigma (St. Louis, Mo.).

IL17 = assay: Inhibition of PHA induced cytokine (IL17) release in PBMC; type: cell-based; settings: Homo sapiens, 48 h, ELISA
Description: b. Inhibition of PHA Induced Cytokine (IL17) Release:
(§1) PBMC from freshly collected HWB were isolated by density gradient using Histopaque and seeded in a 96-well plate. Wells were incubated with desired concentrations of the inhibitor for 15 min. Proliferation was induced by the addition of 2 μM Phytohemagglutinin at 37° C. in an atmosphere containing 95% CO2. Supernatant was collected after 48 h for estimation of cytokines by ELISA. Data were analyzed using GraphPad Prism. Percent inhibition and IC50 values for each compound were determined based on the percent inhibition due to the test compound compared to the control.

CD4+ cell [2] = assay: Inhibition of PHA induced CD4+ cell proliferation in human whole blood; type: cell-based; settings: 48 h, flow cytometry
Description: c. Inhibition of PHA Induced CD4+ Cell Proliferation in Human Whole Blood:
(§2) HWB or were treated with desired concentration of inhibitor and induced with 5 μM PHA. % CD4+ cell viability was determined after 48 h by flow cytometry. Data were analyzed using GraphPad Prism. Percent inhibition and IC50 values for each compound were determined based on the percent inhibition due to the test compound compared to the control.

IL-17 secreting cells = assay: Determination of IL-17 producing cells by flow cytometry in PBMC; type: cell-based; settings: human PBMC, Cytostim, 4 h, read-out: inhibition of IL17 (IL-17 secreting cells normalized to total CD4+ cells)
Description: 3. Determination of IL-17 Producing Cells by Flow Cytometry:
PBMC isolated from human blood were stimulated and treated with desired concentrations of the test compounds prior to stimulation with Cytostim (Milteny Biotech, Germany). After 4 h, IL-17 secreting cells were stained using the IL-17 secretion assay kit as per the manufacturer's instruction and normalized to total CD4+ cells within the PBMC population. Data were analyzed using Graph pad prism.

PBMC = assay: Inhibition of PHA induced PBMC proliferation (MTT); type: cell-based; settings: Homo sapiens, 48 h
Description: a. Inhibition of PHA Induced PBMC Proliferation:
as §1, with “HWB was” for “HWB were”, “[…]. Viability” for “CO2. Supernatant”, “was determined” for “was collected”, “h using an 3-(4,5-Dimethylthiazol-2-yl)-2,5-diphenyltetrazolium bromide (MTT) assay.” for “h for estimation of cytokines by ELISA.”, “Prism. percent” for “Prism. Percent”, “inhibition and/or GI50” for “inhibition and IC50”

CD4+ cell [3] = assay: Inhibition of PHA induced CD4+ cell proliferation in PBMC; type: cell-based; settings: Homo sapiens, isolated PBMC, 48 h, flow cytometry
Description: d. Inhibition of PHA Induced CD4+ Cell Proliferation in PBMC:
as §2, with “Isolated PBMC” for “HWB or”, “Prism.” for “Prism. Percent inhibition and”

[4] = patients; cited from earlier work
HIV = settings: at a concentration that can be obtained with conventional dosing; cited from earlier work

inhibition at 1 µM (h-DHODH) [%] | IC50 (h-DHODH) [nM] | melting point [°C] | IC50 (IL-17) [µM] | inhibition at 0.3 µM (h-DHODH) [%] | SMILES | inhibition at 10 µM (IL-17) [%] | ALT [1] [U/L] | AST [1] [U/L] | inhibition at 10 µM (IL17) [%] | inhibition at 1 µM (CD4+ cell [2]) [%] | inhibition at 1 µM (IL-17 secreting cells) [%] | inhibition at 10 µM (PBMC) [%] | inhibition at 1 µM (CD4+ cell [3]) [%] | half-life time [4] | reduction of HIV replication (HIV)
85.7 | 49.8 | 136 to 141 | – | – | CCOc1cccc(-c2cc(F)c(NC(=O)c3ccccc3C(=O)O)c(F)c2)c1 [Example 5, 2-(3′-Ethoxy-3,5-difluorobiphenyl-4-ylcarbamoyl)benzoic acid] | 30.8 | 113.6 | 137.8 | > 50 | – | – | – | – | – | –
82.2 | 44.6 | 144 to 148 | – | – | CCCOc1cccc(-c2cc(F)c(NC(=O)c3ccccc3C(=O)O)c(Cl)c2)c1 [Example 19, 2-(3-Chloro-5-fluoro-3′-propoxybiphenyl-4-ylcarbamoyl)benzoic acid] | 19 | 87.9 | 126.5 | – | – | – | – | – | – | –
76.9 | 24 | 122 to 126 | – | – | O=C(O)c1ccccc1C(=O)Nc1c(F)cc(-c2cccc(OC3CCCC3)c2)cc1Cl [Example 42, 2-(3-Chloro-3′-(cyclopentyloxy)-5-fluorobiphenyl-4-ylcarbamoyl)benzoic acid] | 22.3 | 113 | 189.6 | – | – | – | > 70 | – | – | –
14 | – | – | 9.11 | – | CCOc1cccc(-c2ccc(NC(=O)c3ccccc3C(=O)O)cc2)c1 [Example 70, 2-(3′-ethoxybiphenyl-4-ylcarbamoyl)benzoic acid] | 48.4 | 84 | 210.4 | – | – | – | – | – | – | –
– | 1.52 | 157.9 to 160.9 | 32.9 | 100 | CCc1c[nH]c2ccc(-c3cc(F)c(NC(=O)c4ccccc4C(=O)O)c(F)c3)cc12 [Example 75, 2-[4-(3-ethyl-1H-indol-5-yl)-2,6-difluorophenylcarbamoyl]benzoic acid] | 29.4 | 93.9 | 210.8 | – | > 65 | – | > 70 | > 90 | – | –
– | – | 154.4 to 158.5 | – | 62.2 | O=C(O)c1ccccc1C(=O)Nc1ccc(-c2cccc(OC(F)(F)F)c2)cc1 [Example 88, 2-[3′-(trifluoromethoxy)biphenyl-4-ylcarbamoyl]benzoic acid] | 19.1 | – | – | – | – | – | – | – | – | –
29.4 | – | 178 to 182 | – | – | CCc1cccc(-c2ccc(NC(=O)c3ccccc3C(=O)O)cc2)c1 [Example 90, 2-(3′-ethylbiphenyl-4-ylcarbamoyl)benzoic acid] | 22.4 | – | – | – | – | – | – | – | – | –
– | – | – | – | – | Cc1oncc1C(=O)Nc1ccc(C(F)(F)F)cc1 [leflunomide, Leflunomide] | – | – | – | – | – | – | – | – | approximately 2 weeks | about 75%

SMILES | inhibition at 1 µM (h-DHODH) [%] | IC50 (h-DHODH) [nM] | melting point [°C] | IC50 (IL-17) [µM] | inhibition at 0.3 µM (h-DHODH) [%] | inhibition at 10 µM (IL-17) [%] | ALT [1] [U/L] | AST [1] [U/L] | inhibition at 10 µM (IL17) [%] | inhibition at 1 µM (CD4+ cell [2]) [%] | inhibition at 1 µM (IL-17 secreting cells) [%] | inhibition at 10 µM (PBMC) [%] | inhibition at 1 µM (CD4+ cell [3]) [%] | half-life time [4] | reduction of HIV replication (HIV)
CCCCOc1cccc(-c2cc(F)c(NC(=O)c3ccccc3C(=O)O)c(Cl)c2)c1 [Example 29, 2-(3′-butoxy-3-chloro-5-fluorobiphenyl-4-ylcarbamoyl)benzoic acid] | 94 | 7.93 | 128 to 130 | 18.8 | – | 46.1 | 67.9 | 114.4 | – | > 65 | 43.6 | > 70 | > 90 | – | –
CC(C)COc1cccc(-c2cc(F)c(NC(=O)c3ccccc3C(=O)O)c(Cl)c2)c1 [Example 31, 2-(3-Chloro-5-fluoro-3′-isobutoxybiphenyl-4-ylcarbamoyl)benzoic acid] | 73.5 | 44.6 | 202 to 205.5 | – | – | 21.1 | 65.1 | 161.4 | – | – | – | – | – | – | –
CCCCOc1cccc(-c2cc(F)c(NC(=O)c3ccccc3C(=O)O)c(F)c2)c1 [Example 35, 2-(3′-Butoxy-3,5-difluorobiphenyl-4-ylcarbamoyl)benzoic acid] | 86.5 | 11.9 | 119.3 to 123.3 | – | – | 7.76 | 108.3 | 172 | – | – | – | – | – | – | –
